The target in the test is T1, human lipocalin-type prostaglandin D synthase (L-PGDS), wild type (Homo sapiens, UniProt P41222).
T1 construct: gene PTGDS; recombinant wild type, pNIC-CH vector, E. coli Rosetta 2 (DE3), Superdex 75 purified
T1 sequence (P41222 23-190): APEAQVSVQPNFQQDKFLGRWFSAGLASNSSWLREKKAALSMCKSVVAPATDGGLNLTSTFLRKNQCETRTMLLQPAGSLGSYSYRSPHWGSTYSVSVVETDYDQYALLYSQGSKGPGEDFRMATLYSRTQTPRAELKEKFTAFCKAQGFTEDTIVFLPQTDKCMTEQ
As to the kind of experiment: ITC (reverse titration, L-PGDS into drug). The conditions noted are these: read-out: Binding affinities and thermodynamic parameters / Kd^a. The text has this: ITC (reverse titration, L-PGDS into drug) on human lipocalin-type prostaglandin D synthase (L-PGDS), wild type

These results are taken from PMC7300299, “Anticholinergic Drugs Interact With Neuroprotective Chaperone L-PGDS and Modulate Cytotoxicity of Aβ Amyloids” (Frontiers in Pharmacology, 2020).

With `O=c1n(CCCN2CCN(c3cccc(Cl)c3)CC2)nc2ccccn12` [TRD, Trazodone], the Kd worked out at 6.5 ± 0.2 µM.

On to `CN(C)CCC(c1ccc(Cl)cc1)c1ccccn1` (centres unmarked) [CPM, Chlorpheniramine], for which the Kd is 5.7 ± 0.2 µM.
